On to `COC(=O)c1cccc(Oc2cccc(-c3nn(C)c(=Nc4ccc(Cl)c(Cl)c4)s3)c2)c1`, for which the melting point is 193 to 196 °C. In the case of `CS(=O)c1ccc(C(=O)c2cnoc2C2CC2)c(Cl)c1` (stereo not given), the melting point is 117 °C. Turning to `COc1cc(CCC(=O)CC(=O)CCc2ccc(O)c(OC)c2)ccc1O`, the melting point lay within 92 to 94 °C. In the case of `O=Cc1ccccc1Oc1ccc(I)cc1` it was 84.5 to 86 °C; in that of `NCC1Cc2cccc(-c3ccccc3C(F)(F)F)c2O1` (stereo not given), 109 to 111 °C. In the case of `CC(C)(C)c1cc(SCCc2n[nH]c(=S)o2)cc(C(C)(C)C)c1O` it was 124 °C; in that of `c1ccc2nc(Cn3ccnc3)ccc2c1`, 106 to 107 °C; in that of `CC(N)Cn1ncc2ccc3c(c21)C(N)C(O)CO3` (stereo not given), 84 to 88 °C. `CCC(Nc1ccc(Br)cc1)n1nnc2ccccc21` (stereo not given): the melting point is 132 °C. Regarding `N=C1c2c(F)cccc2S(=O)(=O)N1CC1CC1`, the melting point was in the range of 90 to 93 °C. The value for `O=C(Nc1ccccc1)c1cc(Br)ccc1O` was 229 to 230 °C. The value for `CCCON=C(C(=O)OCC)c1csc(N)n1` was 142 to 144 °C; that for `CCSC(=O)c1c(C(F)(F)F)nc(C(F)F)c(C(=O)OC)c1N` was 72 to 74 °C. Turning to `CO/C=C(/C(=O)OC)c1ccccc1COc1cccc(Br)n1`, the melting point was in the range of 64 to 65 °C. The value for `Cc1cc2c(cc1OC(=S)N(C)C)C(C)(C)CCC2(C)C` was 102 to 103 °C; that for `CCOC(=O)COc1ccc(C2=NNC(=O)NC2C)cc1` (stereo not given) was 152 to 153 °C. Consider `Oc1ccc(-c2ccc(O)cc2C#Cc2ccccc2)c(C#Cc2ccccc2)c1`, for which the melting point was 187 °C. In the case of `O=S(=O)(CC1(O)CN2CCC1CC2)c1ccc(-c2ccccc2)cc1` (stereo not given) it was 203 to 205 °C; in that of `C=CCNc1nc(NCC)c2scc(C)c2n1`, 96 to 97 °C.

For the molecule `Cc1cccc(C)c1NC(=O)CN1CCNCC1CC(N)=O` (stereo not given), the melting point was 172 °C. The value for `N#CC=C(N)c1ccsc1` was 67 to 69.5 °C; that for `COc1cc(OC)cc(N2CCN(C(=O)Nc3cc(C(C)OC(=O)CCC(=O)O)c(C)nc3OC)CC2)c1` (stereo not given) was 158 to 160 °C; that for `CC(C)CCC(O)C(C)C1CC=C2C3=C(CCC21C)C1(C)CCC(OC(=O)c2ccccc2)C(C)(C)C1CC3` (stereo not given) was 142 to 143 °C.

`CN(C)C(=O)C1(CCCN2CCCCC2)CC=CCC1c1ccccc1` (stereo not given) registered a melting point of 105 to 106 °C. Regarding `CCOC(=O)c1ccc2c(c1)ncn2-c1cc(Cl)ccc1O`, the melting point is > 360 °C. In the case of `CC(=O)Nc1ccc(C2=NN(C(=O)C3CC3)C(C)Cc3cc4c(cc32)OCO4)cc1` (stereo not given) it was 242 to 243 °C; in that of `CCCCCCOc1ccc(-c2ccc(-c3ccc(CCCC)s3)c(F)c2)cc1`, 66 °C. The value for `COC(=O)CCC#Cc1ccc(O)c(CCC(=O)OC)n1` was 119 to 121 °C; that for `CCS(=O)(=O)NNC(=O)NNS(=O)(=O)CC` was 195 °C. For `COc1ccc(C(C)N(C)CCCOc2ccc(S(=O)(=O)c3c(C(C)C)cn4ccccc34)cc2)cc1OC` (stereo not given), the melting point was in the range of 82 to 83 °C. The value for `Cc1noc(C)c1Cn1cc(N2C(=O)CN(CCOc3ccccc3)C2=O)cn1` was 117 to 118 °C; that for `Cc1c(-c2ccccc2)oc2c(SCCCCl)cccc2c1=O` was 84 to 86 °C.

Consider `Cc1c(-c2ccc(N(C)C)nn2)ssc1=S`, for which the melting point came out at 216 °C. Regarding `CCOC(=O)c1cc(C(=O)O)nc2cc(Cl)cc(Cl)c12`, the melting point was in the range of 152 to 154 °C.

For `COc1ccc2c(c1)C(CC(=O)O)CCO2` (stereo not given), the melting point is 80 to 83 °C. In the case of `CC(C)[C@H](CC(N)=O)NC(=O)OCc1ccccc1` it was 171 to 172 °C; in that of `CC(NC(=S)NCC(COC(=O)C(C)(C)C)Cc1ccc(C(C)(C)C)cc1)c1ccc(NS(C)(=O)=O)cc1` (stereo not given), 87 °C.

Turning to `CC[Si](C#Cc1c2ccccc2c2ccc3c(C#C[Si](CC)(CC)CC)c4ccccc4c4ccc1c2c34)(CC)CC`, the melting point lay in the range of 300 to 307 °C.

On to `Cc1ccccc1S(=O)(=O)NC(=O)c1ccc2c(ccn2Cc2cccc([N+](=O)[O-])c2)c1`, for which the melting point fell in the range of 208 to 210 °C. The value for `O=C1C(=C2C=C(c3ccccc3)S(=O)(=O)C(c3ccccc3)=C2)C(=O)c2ccccc21` was 235 to 236 °C; that for `NC(CC1c2ccccc2Sc2ccccc21)(C(=O)O)c1ccc(C(=O)O)cc1` (stereo not given) was 251 °C. The value for `CS(=O)(=O)Nc1ccccc1SC1CCCCC1` was 50 to 51 °C; that for `Cc1[nH]cnc1/C=C1\CCc2sc3ccccc3c2C1=O` was 220 to 223 °C. On to `O=C1CCC(c2cccc(F)c2)(c2cccc(F)c2)[C@@H]2CN(C(=O)Cc3ccccc3)C[C@H]12` (racemic), for which the melting point was 108 °C. In the case of `CN(C)CCCNCc1ccc(-c2cc3ncnc(Nc4ccc5[nH]ccc5c4)c3s2)cc1` it was 148 to 160 °C; in that of `COc1ccc(-c2cccc(OC3SCC(O)C(O)C3O)c2)cn1` (stereo not given), 174 °C. `COC(=O)c1cc(Cl)c(N)cc1O` had a melting point of 138 to 139 °C. In the case of `CCOC(=O)c1cn(CC)nc1OCc1ccc(OCc2nc(-c3ccco3)oc2C)c(OC)c1` it was 114 to 115 °C. In the case of `COC(=O)c1coc(CN2C(=O)C3(COc4cc5c(cc43)OCO5)c3ccccc32)n1` (stereo not given) it was 183 to 185 °C; in that of `COC(=O)C(=NO)C(=O)N1CCC(c2ccc(OC)c(OC3CCCC3)c2)CC1`, 159 to 160 °C. As to `C1=C(c2c[nH]c3ccccc23)CCN(CC2COc3ccc4occc4c3O2)C1` (stereo not given), the melting point is 208 to 209 °C. In the case of `COc1ccc(COCc2nccn2CCO)cc1` it was 96 to 98 °C; in that of `Cc1cc(N)c2c(c1Cl)CC(C)O2` (stereo not given), 157 to 160 °C; in that of `COC(=O)/C(O)=C1\CCc2cc(OC)ccc2C1=O`, 77.3 to 77.8 °C. In the case of `C[C@H](NC(=O)c1ccc(N)cc1F)C(=O)O` it was 244 to 248 °C; in that of `CC(C#N)c1ccc2nc(-c3ccccc3)ccc2c1` (stereo not given), 126 °C; in that of `CCCCNC(=O)NCCCCCCCCCCCCN`, 97 °C.

In turn, `Nc1ccc(-c2ncc(C(F)(F)F)cc2Cl)cc1[N+](=O)[O-]` gave a melting point of 126 to 127 °C. The value for `COc1cc2c(cc1OC)-c1c(OC)c(OC)cc3c1C(C2)N(C)CC3` (stereo not given) was 112 to 114 °C. In the case of `CCCCOCCOc1ccc(-c2ccc(N3CCCC(C)C3)c(C=CC(=O)O)c2)cc1` (stereo not given) it was 125 to 127 °C; in that of `CNC(=S)N1CCCC(N2CCC(Nc3nc4ccccc4n3Cc3ccc(F)cc3)CC2)C1` (stereo not given), 219 °C; in that of `CCCCCCCCC(SCCCCCC)C(=O)Nc1cccc2nnccc12` (stereo not given), 54 to 56 °C. In the case of `CCCCNC(=O)COC1c2ccccc2C(=O)N1c1ccc2ccc(OC)nc2n1` (stereo not given) it was 170 °C. `O=C(O)/C=C/n1cnc2ccc(C3CC3)cc2c1=O`: the melting point was 291 to 293 °C. In the case of `CCOC(=O)Cn1c(=O)c(=O)[nH]c2ccc3ccc(-n4ccc(CNC(=O)c5ccccc5)c4)cc3c21` it was > 250 °C.

On to `Cc1cc2cc(CN3CCOCC3)cnc2cc1NC(=O)c1ccc(-c2ccc(F)cc2)cc1`, for which the melting point was 153 to 158 °C. The value for `Clc1cnc2c(C(Cl)(Cl)Cl)cc(Cl)cc2c1` was 198 °C; that for `OCC1CN(Cc2ccccc2)CCc2c1[nH]c1ccccc21` (stereo not given) was 95 °C. In the case of `COc1ccc(C2Sc3c(ccc4ccccc34)N(CCN(C)C)C(=O)C2OC(C)=O)cc1` (stereo not given) it was 122 to 124 °C.

`COC(=O)C1=C(C=O)NC(C)=C(P2(=O)OCCCO2)C1c1ccccc1[N+](=O)[O-]` (stereo not given) returned a melting point of 135 to 136 °C. In the case of `O=P(O)(O)C(O)(Cc1cccc(Cl)c1)P(=O)(O)O` it was 198 to 200 °C. In turn, `O=C1Nc2cccc(-c3ccc(Oc4ccccc4)cc3)c2C12COc1cc3c(cc12)OCCO3` (stereo not given) had a melting point of 243 to 246 °C.

Consider `C#Cc1cccc(Nc2ncnc3cc4c(cc23)OCO4)c1`, for which the melting point is > 350 °C. In the case of `CC(C)(C)c1ccc(NC(=O)Nc2cccc(C(=O)O)c2)cc1` it was 147 to 148 °C; in that of `O=C(O)CC1CCC(N2CCC(CNc3ccncc3)CC2)CC1` (stereo not given), 260 °C. The value for `COC(=O)[C@]1(C)Cc2c([nH]c3ccc(Cl)cc23)[C@@H](c2cccc(O)c2)N1` (racemic) was 240 to 241 °C; that for `COc1cc(I)cc(OC)c1` was 73 to 74 °C; that for `Cc1ccc2c(Cl)cc(S(=O)(=O)NCCc3ccc(N)cc3)c(O)c2n1` was 249 to 253 °C. The value for `Cc1ccc(C)c(OCCO)c1` was 45 to 48 °C; that for `Nc1nc2c(Oc3ccccc3)cccc2s1` was 135 to 137 °C; that for `Cc1nc(/C=C/c2ccccc2)no1` was 166 to 168 °C. In the case of `CS(=O)(=O)c1ccc(N2CC(O)(C(F)(F)F)N=C2c2ccc3c(c2)OCO3)cc1` (stereo not given), the melting point was 200 to 202 °C. In the case of `COc1ccc(CN(CCN(C)CCCCCCNC(=NCCCOc2cccc(CN3CCCCC3)c2)NC#N)c2ccccn2)cc1` it was 79 °C; in that of `C=CCN1Cc2nc3c(cnn3CCCC#CC)c(N)c2C1=O`, 138 to 140 °C.

In turn, `COc1ccc2c(c1)C(=O)c1c-2c(N2CCN(C(=O)CCCl)CC2)nc2ccccc12` yielded a melting point of 162 to 163 °C. The value for `COc1ccnc(CS(=O)c2nc3cc(OC(F)F)ccc3n2S(=O)(=O)c2ccc(Cl)cc2)c1OC` (stereo not given) was 82 to 83 °C; that for `C=CCCN(CCC=C)Cc1noc(-c2ncn3c2[C@@H]2CCN2C(=O)c2c(Cl)cccc2-3)n1` was 115 to 120 °C; that for `CNC(=S)C1=CC2(CCOCC2)Oc2ccc([N+](=O)[O-])cc21` was 223 to 225 °C. The value for `CNC1(c2ccccc2)CCC(c2[nH]c3ccccc3c2CCc2ccncc2)CC1` (stereo not given) was 224 to 227 °C; that for `OCCNC(=S)C1(c2ccccn2)CCCS1` (stereo not given) was 132 °C.

For the origin of these results see a melting point compilation (Tetko et al.; mined from patent text by program, amines drawn as free bases though some values may be those of a salt).
